In patent publication US9686990B2, “Spiroindolinepiperidine derivatives” (priority 2002, dated 2017) one finds pest or weed control data, which are given here for 14 compounds.

What all share (assay type): in vivo
Experiment [1] concerns Heliothis virescens (Tobacco Budworm). Kind of experiment: Heliothis virescens egg/larva test on artificial diet. As to conditions: 96 h, read-out: control of Heliothis virescens.
The test system of experiment [2] is Plutella xylostella (Diamond Back Moth). Kind of experiment: Plutella xylostella larva test on artificial diet. As to conditions: 120 h, 18.2 ppm by pipetting on artificial diet, L2 larvae, 5 days incubation, larval mortality, antifeedant, growth regulation. As to the method: (§1) Test against were performed as follows:
24-well microtiter plate (MTP) with artificial diet was treated with test solutions at an application rate of 18.2 ppm by pipetting. After drying, the MTP's were infested with larvae (L2) (10-15 per well). After an incubation period of 5 days, samples were checked for larval mortality, antifeedant and growth regulation.

The subject of experiment [3] is Aedes aegypti (Yellow Fever Mosquito). As to the kind of experiment: whole plant or invertebrate. As to conditions: 48 h, L2 larvae with nutrition mixture, 2 days, mortality and growth inhibition. As to the method:
as §1
Bean leaf discs on agar in 24-well microtiter plates wer sprayed with test solutions at an application rate of 200 ppm. After drying, the leaf discs are infested with mite populations of mixed ages. 8 days later, discs are checked for egg mortality, larval mortality, and adult mortality. […] Aedes aegypti (Yellow Fever Mosquito): 10-15 Aedes larvae (L2) together with a nutrition mixture are placed in 96-well microtiter plates. Test solutions at an application rate of 2 ppm are pipetted into the wells. 2 days later, insects were checked for mortality and growth inhibition.

In experiment [4] the test system is Spodoptera littoralis (Egyptian Cotton Leafworm). As to the kind of experiment: Spodoptera littoralis cotton leaf disc spray test. As to conditions: foliar, 72 h, read-out: control of Spodoptera littoralis. As to the method:
as §1
Spodoptera littoralis (Egyptian Cotton Leafworm)

On to `O=C(c1ccnc(Cl)c1)N1CC2(CCN(C/C=C/c3ccccc3)CC2)c2ccccc21` [Compound I-1, 1-(2-Chloropyridin-4-yl)carbonyl-1′-[trans-3-phenylallyl]spiro[indoline-3,4′-piperidine]], for which the pest or weed control at 200 ppm in experiment [1] is at least 80%. In addition, the pest or weed control at 18.2 ppm in experiment [2] is at least 80%.

Take `N#Cc1ccc2c(c1)C1(CCN(C/C=C/c3ccc(Cl)cc3)CC1)CN2C(=O)c1ccnc(Cl)c1` [Compound I-212, 5-Cyano-1-(2-chloropyridin-4-yl)carbonyl-1′-[trans-3-(4-chlorophenyl)allyl]spiro[indoline-3,4′-piperidine]]: in experiment [3], the pest or weed control at 2 ppm was at least 80%. Moreover, the pest or weed control at 200 ppm in experiment [4] and in experiment [1] was at least 80% in each case. Further, in experiment [2], the pest or weed control at 18.2 ppm was at least 80%.

Take `CC(=O)N1CC2(CCN(C/C=C/c3ccc(Cl)cc3)CC2)c2cc(Cl)ccc21` [Compound V-22, 1-Acetyl-5-chloro-1′-[trans-3-(4-chlorophenyl)allyl]spiro[indoline-3,4′-piperidine]]: the pest or weed control at 2 ppm in experiment [3] was at least 80%. Further, the pest or weed control at 200 ppm in experiment [4] and in experiment [1] was at least 80% throughout. This compound had a pest or weed control at 18.2 ppm in experiment [2] of at least 80%.

As to `O=C(c1ccncc1)N1CC2(CCN(C/C=C/c3ccc(Cl)cc3)CC2)c2cc(Cl)ccc21` [VI-22, 1-(Pyridin-4-yl)-carbonyl-5-chloro-1′-[trans-3-(4-chlorophenyl)allyl]spiro[indoline-3,4′-piperidine]], the pest or weed control at 2 ppm in experiment [3] was at least 80%. For the same compound, the pest or weed control at 200 ppm in experiment [4] and in experiment [1] was at least 80% each time. Further, the pest or weed control at 18.2 ppm in experiment [2] is at least 80%.

On to `Clc1ccc(/C=C/CN2CCC3(CC2)CN(c2cnccn2)c2ccc(Cl)cc23)cc1` [XIV-22, 1-(2-Pyrazinyl)-5-chloro-1′-[trans-3-(4-chlorophenyl)allyl]spiro[indoline-3,4′-piperidine]], for which the pest or weed control at 2 ppm in experiment [3] was at least 80%. The pest or weed control at 200 ppm in experiment [4] and in experiment [1] was at least 80% each time. This compound showed a pest or weed control at 18.2 ppm in experiment [2] of at least 80%.

With `Cc1ccc2c(c1)C1(CCN(C/C=C/c3ccc(Cl)cc3)CC1)CN2C(=O)c1ccc(C#N)cc1` [XIX-202, 1-(4-cyanobenzoyl)-5-methyl-1′-[trans-3-(4-chlorophenyl)allyl]spiro[indoline-3,4′-piperidine]], the pest or weed control at 200 ppm in experiment [4] and in experiment [1] was at least 80% in each case.

As to `O=C(c1ccnc(Cl)c1)N1CC2(CCN(C/C=C/c3ccc(C(F)(F)F)cc3)CC2)c2cc(Cl)ccc21` [XXX-51, 1-(2-chloropyridin-4-yl)carbonyl-5-chloro-1′-[(E)-3-(4-trifluoromethyl-phenyl)allyl]spiro[indolin-3,4′-piperidine]], the pest or weed control at 2 ppm in experiment [3] is at least 80%. Also, in experiment [4], the pest or weed control at 200 ppm is at least 80%. Besides, the pest or weed control at 18.2 ppm in experiment [2] is at least 80%.

As to `CSc1ccc(/C=C\CN2CCC3(CC2)CN(C(=O)c2ccnc(Cl)c2)c2ccc(Cl)cc23)cc1` [XXX-72, 1-(2-chloropyridin-4-yl)carbonyl-5-chloro-1′-[(Z)-3-(4-methylthiophenyl)allyl]spiro[indolin-3,4′-piperidine]], in experiment [1], the pest or weed control at 200 ppm was at least 80%.

For `O=C(c1ccnc(Cl)c1)N1CC2(CCN(C/C=C(\F)c3ccc(Cl)cc3)CC2)c2cc(Cl)ccc21` [XXX-90, 1-(2-chloropyridin-4-yl)carbonyl-5-chloro-1′-[(Z)-3-(4-chlorophenyl)-3-fluoro-allyl]spiro[indolin-3,4′-piperidine]], the pest or weed control at 2 ppm in experiment [3] is at least 80%. For the same compound, the pest or weed control at 200 ppm in experiment [1] is at least 80%. Also, the pest or weed control at 18.2 ppm in experiment [2] is at least 80%.

Consider `NN1CC2(CCN(C/C=C/c3ccc(Cl)cc3)CC2)c2cc(F)ccc21` [XXX-94], for which the pest or weed control at 2 ppm in experiment [3] was at least 80%. Besides, the pest or weed control at 200 ppm in experiment [1] is at least 80%.

Take `C/C(=N/N1CC2(CCN(C/C=C/c3ccc(Cl)cc3)CC2)c2cc(Cl)ccc21)N(C)C` [XXX-102, N′-[5-chloro-1′-[trans-3-(4-chlorophenyl)allyl]spiro[indoline-3,4′-piperidine]-1-yl]-N,N-dimethylacetamidine]: the pest or weed control at 2 ppm in experiment [3] is at least 80%.

Turning to `COCCNC(=O)N1CC2(CCN(C/C=C/c3ccc(Cl)cc3)CC2)c2cc(F)ccc21` [XXX-105], the pest or weed control at 2 ppm in experiment [3] is at least 80%. The pest or weed control at 200 ppm in experiment [4] and in experiment [1] was at least 80% in each case. The same compound registered a pest or weed control at 18.2 ppm in experiment [2] of at least 80%.

For `O=C(c1ccnc(Cl)c1)N1CC2(CCN(C/C(F)=C/c3ccc(Cl)cc3)CC2)c2cc(Cl)ccc21` [XXX-113, 1-(2-chloropyridin-4-yl)carbonyl-5-chloro-1′-[(Z)-3-(4-chlorophenyl)-2-fluoro-allyl]spiro[indolin-3,4′-piperidine]], the pest or weed control at 2 ppm in experiment [3] is at least 80%. The pest or weed control at 200 ppm in experiment [4] and in experiment [1] was at least 80% throughout. Further, the pest or weed control at 18.2 ppm in experiment [2] is at least 80%.

Turning to `O=C(c1ccnc(Cl)c1)N1CC2(CCN(C/C=C(\Cl)c3ccc(Cl)cc3)CC2)c2cc(Cl)ccc21` [XXX-115, 1-(2-chloropyridin-4-yl)carbonyl-5-chloro-1′-[(Z)-3-(4-chlorophenyl)-3-chloro-allyl]spiro[indolin-3,4′-piperidine]], in experiment [1], the pest or weed control at 200 ppm was at least 80%.
